Measured values published in US4463014A, “Cyclopropane carboxylates” (Uclaf; Roussel, priority 1981, dated 1984).

Legend:
Format in all cases: in vivo
[1] = system: houseflies; assay: Knockdown activity against houseflies; details: female houseflies 4 days old, sprayed in Kearns and March chamber, 0.25 g/liter, 5% acetone and 95% Isopar L
Method: Female houseflies 4 days old were sprayed in a Kearns and March chamber at 2 ml per second with a solution of 5% of acetone and 95% of Isopar L with 50 insects being used for each dose at a concentration of 0.25 g/liter and readings were taken every 30 seconds for 10 minutes and after 15 minutes to determine the KT50 by the usual method.

[2] = system: houseflies; assay: Lethal activity against houseflies (topical application); details: female houseflies 4 to 5 days old, topical 1 μl acetone solution on dorsal thorax, dead counted 24 hours later
Method: 50 female houseflies 4 to 5 days old per treatment received a topical application of 1 μl of an acetone solution of the test compound on the dorsal thorax with an Arnold micromanipulator and the number of dead flies was determined 24 hours later. The DL50 or dose in nanograms per fly necessary to kill 50% of the insects were determined and the results are reported in Table II.

[3] = system: beetles; assay: Lethal activity against beetles (contact with film on glass); details: contact with film on glass from acetone solutions
Text: The tests were effected by contact with a film on glass deposited by pipette of acetone solutions of different concentrations on the bottom of a glass Petrie dish with sides previously coated with talc to avoid loss of insects.

[4] = system: larvae of Spodoptera littoralis; assay: Lethal effect against Spodoptera larvae (topical application); details: Spodoptera littoralis larvae 4th stage, topical 1 μl acetone solution, dead counted 48 hours later
Method: 1 μl of acetone solution of the test compound was applied with an Arnold micromanipulator to the dorsal thorax of 15 larvae of Spodoptera littoralis in the 4th stage of development which are about 10 days old at 24° C. and 65% relative humidity. After treatment, the larvae were placed on an artificial nutritive media and the number of dead was determined 48 hours later.

[5] = system: larvae of Acanthocelides obtectus; assay: Lethal activity against Acanthocelides obtectus; details: Test D repeated

For `CC1(C)[C@H](C(=O)O[C@H](C#N)c2ccc(F)c(Oc3ccccc3)c2)[C@@H]1C=C1CCCC1` [Example 9, (S) cyano-(4-fluoro-3-phenoxy-phenyl)-methyl (1R,cis) 2,2-dimethyl-3-cyclopentylidenemethyl-cyclopropane-1-carboxylate], the KT50 [1] was 4.4 min, the “DL50 namograms per insects” value [2] was 0.87 namograms per insects and the “CL50 in mg/m^2” value [3] was 0.083 mg/m^2. The “DL50 ng per insect” value [4] was 5.1 ng per insect and the “DL50 in ng per insect” value [5] was 8.6 ng per insect.
With `CC1(C)[C@H](C=C2CCSC2=O)[C@H]1C(=O)O[C@H](C#N)c1ccc(F)c(Oc2ccccc2)c1` [Example 10, (S) cyano-(4-fluoro-3-phenoxy-phenyl)-methyl (1R,trans) 2,2-dimethyl-3-[(dihydro-2-oxo-3-(2H)-thienylidene)-methyl]-cyclopropane-1-carboxylate] the KT50 [1] was 3.5 min.
`CC1(C)[C@H](C=C2CC2)[C@H]1C(=O)O[C@H](C#N)c1ccc(F)c(Oc2ccccc2)c1` [Example 15, (S) cyano-(3-phenoxy-4-fluoro-phenyl)-methyl (1R,trans) 2,2-dimethyl-3-cyclopropylidene-methyl-cyclopropane-1-carboxylate] was tested, and the KT50 [1] was 2.85 min, the “DL50 namograms per insects” value [2] was 2.04 namograms per insects and the “CL50 in mg/m^2” value [3] was 0.137 mg/m^2. The “DL50 ng per insect” value [4] was 4.6 ng per insect and the “DL50 in ng per insect” value [5] was 31.2 ng per insect.
With `CC1(C)[C@H](C(=O)O[C@H](C#N)c2ccc(F)c(Oc3ccccc3)c2)[C@@H]1C=C1CCSC1=O` [Example 11, (S) cyano-(4-fluoro-3-phenoxy-phenyl)-methyl (1R,cis) 2,2-dimethyl-3-[(dihydro-2-oxo-3-(2H)-thienylidene)-methyl]-cyclopropane-1-carboxylate] the KT50 [1] was 3.5 min, the “DL50 namograms per insects” value [2] was 21.3 namograms per insects and the “DL50 ng per insect” value [4] was 8.2 ng per insect. For the same molecule, the “DL50 in ng per insect” value [5] was 50.6 ng per insect.
For `CC1(C)[C@H](C(=O)O[C@H](C#N)c2ccc(F)c(Oc3ccccc3)c2)[C@@H]1C=C1CC1` [Example 14, (S) cyano-(4-fluoro-3-phenoxy-phenyl)-methyl (1R,cis) 2,2-dimethyl-3-cyclopropylidene-methyl-cyclopropane-1-carboxylate], the KT50 [1] was 3.13 min, the “DL50 namograms per insects” value [2] was 1.44 namograms per insects and the “CL50 in mg/m^2” value [3] was 0.049 mg/m^2. For the same molecule, the “DL50 ng per insect” value [4] was 4.25 ng per insect and the “DL50 in ng per insect” value [5] was 22.7 ng per insect.
With `CC1(C)[C@H](C(=O)O[C@H](C#N)c2ccc(F)c(Oc3ccccc3)c2)[C@H]1C(Br)C(Br)(Br)Br` (stereo partly drawn) [Example 4, (S) cyano-(4-fluoro-3-phenoxy-phenyl)-methyl (1R,trans) 2,2-dimethyl-3-[1(R,S)2,2,2-tetrabromoethyl]-cyclopropane-1-carboxylate] the KT50 [1] was 2.0 min, the “DL50 namograms per insects” value [2] was 1.04 namograms per insects and the “CL50 in mg/m^2” value [3] was 0.074 mg/m^2. The “DL50 ng per insect” value [4] was 6.5 ng per insect and the “DL50 in ng per insect” value [5] was 6.7 ng per insect.
`CC1(C)[C@H](C=C2CCCC2)[C@H]1C(=O)O[C@H](C#N)c1ccc(F)c(Oc2ccccc2)c1` [Example 8, (S) cyano-(4-fluoro-3-phenoxy-phenyl)-methyl (1R,trans) 2,2-dimethyl-3-cyclopentylidenemethyl-cyclopropane-1-carboxylate] was tested, and the KT50 [1] was 6.1 min, the “DL50 namograms per insects” value [2] was 0.98 namograms per insects and the “CL50 in mg/m^2” value [3] was 0.054 mg/m^2. The “DL50 ng per insect” value [4] was 14.9 ng per insect and the “DL50 in ng per insect” value [5] was 20.1 ng per insect.
With `CC1(C)[C@H](C(=O)O[C@H](C#N)c2ccc(F)c(Oc3ccccc3)c2)[C@@H]1C(Br)C(Br)(Br)Br` (stereo partly drawn) [Example 5, (S) cyano-(4-fluoro-3-phenoxy-phenyl)-methyl (1R,cis) 2,2-dimethyl-3-[1,(R,S) 2,2,2-tetrabromoethyl]-cyclopropane-1-carboxylate] the KT50 [1] was 4.8 min, the “DL50 namograms per insects” value [2] was 0.58 namograms per insects and the “CL50 in mg/m^2” value [3] was 0.037 mg/m^2. For the same molecule, the “DL50 ng per insect” value [4] was 1.6 ng per insect and the “DL50 in ng per insect” value [5] was 16.1 ng per insect.
`CC1(C)C(C(=O)O[C@H](C#N)c2ccc(F)c(Oc3ccccc3)c2)C1(C)C` [Example 1, (S) cyano-(4-fluoro-3-phenoxy-phenyl)-methyl 2,2,3,3-tetramethyl-cyclopropane-1-carboxylate] was tested, and the KT50 [1] was 2.0 min, the “DL50 namograms per insects” value [2] was 5.3 namograms per insects and the “CL50 in mg/m^2” value [3] was 0.22 mg/m^2. The “DL50 ng per insect” value [4] was 8.4 ng per insect and the “DL50 in ng per insect” value [5] was 8.12 ng per insect.
With `CC(C)[C@H](C(=O)O[C@H](C#N)c1ccc(F)c(Oc2ccccc2)c1)c1ccc(OC(F)F)cc1` [Example 12, (S) cyano (4-fluoro-3-phenoxy-phenyl)-methyl 2 (S)-[p-difluoromethoxy-phenyl]-3-methyl-butyrate] the KT50 [1] was 3.6 min, the “DL50 namograms per insects” value [2] was 4.9 namograms per insects and the “CL50 in mg/m^2” value [3] was 0.23 mg/m^2. The “DL50 ng per insect” value [4] was 44.3 ng per insect and the “DL50 in ng per insect” value [5] was 22.2 ng per insect.
In the case of `CC1(C)[C@H](C=C(F)F)[C@H]1C(=O)O[C@H](C#N)c1ccc(F)c(Oc2ccccc2)c1` [Example 6], the KT50 [1] is reported as 1.6 min, the “DL50 namograms per insects” value [2] is reported as 8.9 namograms per insects and the “CL50 in mg/m^2” value [3] is reported as 0.126 mg/m^2. The “DL50 ng per insect” value [4] was 3.4 ng per insect and the “DL50 in ng per insect” value [5] was 7.1 ng per insect.
`CC1(C)[C@H](C(=O)O[C@H](C#N)c2ccc(F)c(Oc3ccccc3)c2)[C@@H]1C(Br)C(Cl)(Cl)Br` (stereo partly drawn) [Example 3, (S) cyano-(4-fluoro-3-phenoxy-phenyl)-methyl (1R,cis) 2,2-dimethyl-3-[1(R,S) 2-dibromo-2,2-dichlor-ethyl]-cyclopropane-1-carboxylate] was tested, and the KT50 [1] was 2.9 min, the “DL50 namograms per insects” value [2] was 1.02 namograms per insects and the “CL50 in mg/m^2” value [3] was 0.021 mg/m^2. The “DL50 ng per insect” value [4] was 1.4 ng per insect and the “DL50 in ng per insect” value [5] was 7.7 ng per insect.
For `CC1(C)[C@H](C(=O)O[C@H](C#N)c2ccc(F)c(Oc3ccccc3)c2)[C@H]1C(Br)C(Cl)(Cl)Br` (mixture of isomers) [Example 2, (S) cyano-(4-fluoro-3-phenoxy-phenyl)-methyl (1R,trans) 2,2-dimethyl-3-[1 (R,S), 2-dibromo-2,2-dichloroethyl]-cyclopropane-1-carboxylate], the KT50 [1] was 2.8 min, the “DL50 namograms per insects” value [2] was 1.14 namograms per insects and the “CL50 in mg/m^2” value [3] was 0.084 mg/m^2. The “DL50 ng per insect” value [4] was 6.2 ng per insect and the “DL50 in ng per insect” value [5] was 10.9 ng per insect.
With `CC1(C)[C@H](C(=O)O[C@H](C#N)c2ccc(F)c(Oc3ccccc3)c2)[C@@H]1C=C1CCC1` [Example 16, (S) cyano-(4-fluoro-3-phenoxy-phenyl)-methyl (1R,cis) 2,2-dimethyl-3-cyclobutylidenemethyl-cyclopropane-1-carboxylate] the KT50 [1] was 2.89 min, the “DL50 namograms per insects” value [2] was 0.639 namograms per insects and the “CL50 in mg/m^2” value [3] was 0.018 mg/m^2. The “DL50 ng per insect” value [4] was 4.5 ng per insect and the “DL50 in ng per insect” value [5] was 12.3 ng per insect.
With `CC1(C)[C@H](C(=O)O[C@H](C#N)c2ccc(F)c(Oc3ccccc3)c2)[C@@H]1C=C(F)F` [Example 7, (S) cyano-(4-fluoro-3-phenoxy-phenyl)-methyl (1R,cis) 2,2-dimethyl-3-[2,2-difluoroethenyl]-cyclopropane-1-carboxylate] the KT50 [1] was 1.7 min, the “DL50 namograms per insects” value [2] was 1.9 namograms per insects and the “CL50 in mg/m^2” value [3] was 0.029 mg/m^2. The “DL50 ng per insect” value [4] was 2.2 ng per insect and the “DL50 in ng per insect” value [5] was 7.4 ng per insect.
With `CC1(C)[C@H](C=C2CCC2)[C@H]1C(=O)O[C@H](C#N)c1ccc(F)c(Oc2ccccc2)c1` [Example 13, (S) cyano-(4-fluoro-3-phenoxy-phenyl)-methyl (1R,trans) 2,2-dimethyl-3-cyclobutylidene-methyl-cyclopropane-1-carboxylate] the KT50 [1] was 2.74 min, the “DL50 namograms per insects” value [2] was 0.97 namograms per insects and the “CL50 in mg/m^2” value [3] was 0.029 mg/m^2. For the same molecule, the “DL50 ng per insect” value [4] was 5.8 ng per insect and the “DL50 in ng per insect” value [5] was 17.9 ng per insect.
